Assay [1] deals with T1, hCRTH2 receptor (Homo sapiens (Human), UniProt Q9Y5Y4). As to the kind of experiment: Radioligand displacement assay in presence of human serum albumin (HSA). The conditions noted are these: 3H-PGD2 2.5 nM, Binding-Buffer with 0.5% HSA instead of 0.1% BSA. How it is done:
(§1) First, recombinant HEK293-hCRTH2 cells were detached from culture plates into 5 ml buffer A/plate (Buffer A: 5 mM Tris, 1 mM MgCl2-6H2O pH=7.4) using a rubber policeman. Cells were then transferred into centrifugation tubes and centrifuged for 5 min at 400 g. The cell pellet was resuspended in the same buffer and tubes were frozen at −80° C. Cells were thawed and membrane fragments were generated by homogenization using a polytron homogenizer (30 seconds). The membrane fragments were then centrifuged at 3000 g for 20 minutes and resuspended in buffer C (Buffer C: 75 mM Tris, 25 mM MgCl2, 250 mM Saccharose pH 7.4). Aliquots of membrane fragements were stored at −20° C.
(§2) Binding assay was performed in a final assay volume of 250 μl. First, 25 μl of test compound, previously diluted in Binding-Buffer (Binding-Buffer: 50 mM Tris-Base, 100 mM NaCl, 1 mM EDTA, 0.1% BSA (protease free), 0.01% NaN3, 10 mM MnCl2 pH 7.0) was placed into each well. After addition of 75 μl Binding-Buffer, 50 μl of the radioligand ^3H-PGD2 (at 2.5 nM (220.000 dpm/well) from ANAWA ART0662) was added to each well. Binding assay was started by addition of 100 μl CRTH2 membrane fragments, reaching a final concentration of 20 μg/well. For non-specific binding, PGD2 was added to the reaction mixture to […] final concentration. This assay mix was incubated for 90 minutes at room temperature and then filtered through a GF/C filter 96-well plate which was pre-soaked for 3 hours in 0.5% polyethyleneimine (PEI). The filter-wells were washed three times with ice cold Binding-Buffer. Then, 40 μl of Microscint-40 (Packard) was added to each well and the retained radioactivity quantified in a Topcount (Packard).
Radioligand Displacement Assay-Human Serum Albumin (HSA):
Radioligand displacement assay in presence of human serum albumin (HSA) was performed as described above, with following modifications. Binding-Buffer-HSA: Binding-buffer+0.5% Sigma Albumin from Human serum A1887 (instead of 0.1% BSA). A volume of 25 μl test compound, previously diluted in Binding-Buffer-HSA was placed into each well. After addition of 75 μl Binding-Buffer-HSA, 50 μl of ^3H-PGD2 (at 2.5 nM (220.000 dpm/well) from ANAWA ART0662) was added to each well. Remaining protocol was identical as described above.
Background: Loss of bound radioactivity is the signal in a displacement assay; it reports binding, not function.

A further assay concerns eosinophils. As to the kind of experiment: Eosinophil shape change assay with human plasma. Type of assay: cell-based. The conditions noted are these: human polymorphonuclear cells, 50% human plasma, activated with 100 nM PGD2. As to the method:
After obtaining informed consent, blood samples were drawn by venipuncture according to the protocol approved by the ethics committee of Basel, Switzerland. Polymorphonuclear leukocytes (containing eosinophils, basophils and neutrophils) were isolated using the Polymorphprep™ method (Axis-Shield). In brief, anticoagulated whole blood was layered onto a Polymorphprep gradient (density 1.113 g/ml) and centrifuged at 500 g for 30 min. The polymorphonuclear cell fraction was harvested and depleted for erythrocytes by hypotonic saline lysis.
The polymorphonuclear cells were resuspended in assay buffer (1×PBS with Ca^2+/Mg^2+ supplemented with 0.1% BSA, 10 mM HEPES, and 10 mM Glucose, pH 7.4) at 5×10^6 cells/ml and stained with anti-CD49d-APC ((APC=Allophycocyanin) for 1 hour at RT. Test compounds, at various concentrations, were preincubated 10 min in human plasma (anticoagulated with a thrombin inhibitor). Then, human plasma was added to the polymorphonuclear cells to 50% of final assay volume with polymorphonuclear cells at 4×10^6 cells/rd. After incubation for 10 minutes at 37° C., the polymorphonuclear cells were activated for 5 min at 37° C. by addition of PGD2 at 100 nM final concentration. Activation was stopped by addition of 0.5 ml paraformaldehyde (1%).
Immediately after fixation with paraformaldehyde, the samples were analyzed by FACSCanto flow cytometer (BD Biosciences) and target cells were identified by their forward-scatter (FSC) and side-scatter (SSC) characteristics. Eosinophils were identified by the anti-CD49d-APC signal and their characteristic side-scatter (SSC) profile. Shape change responses, indicative of eosinophil activation, were quantified as the percent of cells with an increased forward-scatter.

The target in assay [2] is T1, hCRTH2 receptor. As to the kind of experiment: hCRTH2 receptor membranes radioligand displacement assay (3H-PGD2). As to conditions: 3H-PGD2 2.5 nM, HEK293-hCRTH2 membranes, Binding-Buffer with 0.1% BSA. How it is done: Biological Assays: Preparation of hCRTH2 Receptor Membranes and Radioligand Displacement Assay:
as §1, §2

Molecules are shown by their SMILES.

Our source for the IC50 values is patent US8697869B2, “3-(heteroaryl-amino)-1,2,3,4-tetrahydro-9H-carbazole derivatives and their use as prostaglandin D2 receptor modulators” (Actelion Pharmaceuticals Ltd., priority 2010, dated 2014).

By IC50 is commonly meant the concentration that gives 50% inhibition.

T1 sequence (Q9Y5Y4 whole entry, the tested form may be a part): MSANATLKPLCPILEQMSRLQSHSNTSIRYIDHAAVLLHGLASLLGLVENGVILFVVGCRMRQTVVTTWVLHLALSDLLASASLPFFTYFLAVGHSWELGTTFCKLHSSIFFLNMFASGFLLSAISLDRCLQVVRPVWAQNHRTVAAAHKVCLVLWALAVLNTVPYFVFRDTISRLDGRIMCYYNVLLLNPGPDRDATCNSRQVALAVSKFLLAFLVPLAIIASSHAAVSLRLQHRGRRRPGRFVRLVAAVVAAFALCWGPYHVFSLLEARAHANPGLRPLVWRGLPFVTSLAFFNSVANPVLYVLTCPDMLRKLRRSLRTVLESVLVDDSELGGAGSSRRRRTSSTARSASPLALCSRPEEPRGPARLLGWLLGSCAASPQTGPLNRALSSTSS

Regarding `CN(c1nc2ccc(F)cc2o1)[C@H]1CCc2c(c3cc(F)ccc3n2CC(=O)O)C1` [Example 43, (3S)-2-(6-fluoro-3-((6-fluorobenzo[d]oxazol-2-yl)(methyl)amino)-3,4-dihydro-1H-carbazol-9(2H)-yl)acetic acid], the half-maximal inhibitory concentration (IC50) at hCRTH2 receptor [1] is 12 nM; with eosinophils (Eosinophil), 6 nM; on hCRTH2 receptor [2], 4.6 nM.

For the molecule `CN(c1ncccn1)[C@H]1CCc2c(c3cc(F)ccc3n2CC(=O)O)C1` [Example 15, (3S)-2-(6-fluoro-3-(methyl(pyrimidin-2-yl)amino)-3,4-dihydro-1H-carbazol-9(2H)-yl)acetic acid], the half-maximal inhibitory concentration (IC50) is 35 nM at hCRTH2 receptor [1], 66 nM in the assay on eosinophils (Eosinophil) and 9.9 nM on hCRTH2 receptor [2].

Turning to `CN(c1nc2ccc(F)cc2s1)[C@H]1CCc2c(c3cc(F)ccc3n2CC(=O)O)C1` [Example 38, (3S)-2-(6-fluoro-3-((6-fluorobenzo[d]thiazol-2-yl)(methyl)amino)-3,4-dihydro-1H-carbazol-9(2H)-yl)acetic acid], the IC50 on hCRTH2 receptor [1] is 9 nM; with eosinophils (Eosinophil) it was 2 nM; at hCRTH2 receptor [2], 1.2 nM.

As to `CN(c1nc2cc(Cl)ccc2o1)[C@H]1CCc2c(c3cc(F)ccc3n2CC(=O)O)C1` [Example 18, (3S)-2-(3-((5-chlorobenzo[d]oxazol-2-yl)(methyl)amino)-6-fluoro-3,4-dihydro-1H-carbazol-9(2H)-yl)acetic acid], the IC50 amounted to 28 nM on hCRTH2 receptor [1], 6 nM in the assay on eosinophils (Eosinophil) and 1.4 nM on hCRTH2 receptor [2].

Turning to `O=C(O)Cn1c2c(c3cc(F)ccc31)C[C@@H](Nc1ncc(F)cn1)CC2` [Example 1, (3S)-2-(6-fluoro-3-((5-fluoropyrimidin-2-yl)amino)-3,4-dihydro-1H-carbazol-9-(2H)-yl)acetic acid], the IC50 at hCRTH2 receptor [1] stood at 20 nM; in the assay with eosinophils, 21 nM; on hCRTH2 receptor [2] it was 16 nM.

`COCCN(c1ncc(Cl)cn1)[C@H]1CCc2c(c3cc(F)ccc3n2CC(=O)O)C1` [Example 34, (3S)-2-(3-((5-chloropyrimidin-2-yl)(2-methoxyethyl)amino)-6-fluoro-3,4-dihydro-1H-carbazol-9(2H)-yl)acetic acid]: the values for the IC50 at hCRTH2 receptor [1], in the assay on eosinophils (Eosinophil) and on hCRTH2 receptor [2] were 14 nM, 8 nM and 5.9 nM, respectively.

Take `CN(c1nc2cc(F)ccc2o1)[C@H]1CCc2c(c3cc(F)ccc3n2CC(=O)O)C1` [Example 29, (3S)-2-(6-fluoro-3-((5-fluorobenzo[d]oxazol-2-yl)(methyl)amino)-3,4-dihydro-1H-carbazol-9(2H)-yl)acetic acid]: the IC50 on hCRTH2 receptor [1] is 7 nM; in the assay on eosinophils (Eosinophil), 4 nM; at hCRTH2 receptor [2], 4.1 nM.

`CCN(c1ncc(Cl)cn1)[C@H]1CCc2c(c3cc(F)ccc3n2CC(=O)O)C1` [Example 24, (3S)-2-(3-((5-chloropyrimidin-2-yl)(ethyl)amino)-6-fluoro-3,4-dihydro-1H-carbazol-9(2H)-yl)acetic acid]: the IC50 at hCRTH2 receptor [1] is 19 nM; in the assay on eosinophils (Eosinophil) it was 37 nM; at hCRTH2 receptor [2], 1.7 nM.

For the molecule `CCCN(c1ncc(Cl)cn1)[C@H]1CCc2c(c3cc(F)ccc3n2CC(=O)O)C1` [Example 25, (3S)-2-(3-((5-chloropyrimidin-2-yl)(propyl)amino)-6-fluoro-3,4-dihydro-1H-carbazol-9(2H)-yl)acetic acid], the figures for the IC50 on hCRTH2 receptor [1], in the assay with eosinophils (Eosinophil) and on hCRTH2 receptor [2] were 17 nM, 13 nM and 3.9 nM, respectively.

In the case of `CN(c1ncc(Cl)cn1)[C@H]1CCc2c(c3cc(F)ccc3n2CC(=O)O)C1` [Example 9, (3S)-2-(3-((5-chloropyrimidin-2-yl)(methyl)amino)-6-fluoro-3,4-dihydro-1H-carbazol-9(2H)-yl)acetic acid], the results for the IC50 at hCRTH2 receptor [1], in the assay with eosinophils (Eosinophil) and on hCRTH2 receptor [2] were 11 nM, 15 nM and 2.7 nM, respectively.

In the case of `O=C(O)Cn1c2c(c3cc(F)ccc31)C[C@@H](Nc1ncc(Cl)cn1)CC2` [Example 3, (3S)-2-(6-fluoro-3-((5-chloropyrimidin-2-yl)amino)-3,4-dihydro-1H-carbazol-9-(2H)-yl)acetic acid], the IC50 on hCRTH2 receptor [1] was 23 nM; in the assay on eosinophils it was 41 nM; at hCRTH2 receptor [2] it was 4.6 nM.

Turning to `CN(c1nc2cc(F)ccc2s1)[C@H]1CCc2c(c3cc(F)ccc3n2CC(=O)O)C1` [Example 39, (3S)-2-(6-fluoro-3-((5-fluorobenzo[d]thiazol-2-yl)(methyl)amino)-3,4-dihydro-1H-carbazol-9(2H)-yl)acetic acid], the concentration for half-maximal inhibition (IC50) was determined as 6 nM at hCRTH2 receptor [1], 16 nM in the assay on eosinophils (Eosinophil) and 3.1 nM at hCRTH2 receptor [2].

`CN(c1nc2ccccc2s1)[C@H]1CCc2c(c3cc(F)ccc3n2CC(=O)O)C1` [Example 20, (3S)-2-(3-(benzo[d]thiazol-2-yl(methyl)amino)-6-fluoro-3,4-dihydro-1H-carbazol-9(2H)-yl)acetic acid]: the results for the 50% inhibitory concentration (IC50) at hCRTH2 receptor [1] and at hCRTH2 receptor [2] were 40 nM and 8.1 nM, respectively.

Turning to `CN(c1ccc(F)cn1)[C@H]1CCc2c(c3cc(F)ccc3n2CC(=O)O)C1` [Example 36, (3S)-2-(6-fluoro-3-((5-fluoropyridin-2-yl)(methyl)amino)-3,4-dihydro-1H-carbazol-9(2H)-yl)acetic acid], the figures for the IC50 at hCRTH2 receptor [1] and at hCRTH2 receptor [2] were 8 nM and 9.8 nM, respectively.

As to `Cc1ccc2c(c1)c1c(n2CC(=O)O)CCC(N(C)c2ncc(Cl)cn2)C1` (stereo not shown) [Example 55, 2-(3-((5-chloropyrimidin-2-yl)(methyl)amino)-6-methyl-3,4-dihydro-1H-carbazol-9(2H)-yl)acetic acid], the half-maximal inhibitory concentration (IC50) at hCRTH2 receptor [1] was determined as 40 nM; at hCRTH2 receptor [2] it was 5.5 nM.

On to `CN(c1ncc(Cl)cn1)C1CCc2c(c3ccccc3n2CC(=O)O)C1` (stereo not shown) [Example 53, 2-(3-((5-chloropyrimidin-2-yl)(methyl)amino)-3,4-dihydro-1H-carbazol-9(2H)-yl)acetic acid], for which the IC50 on hCRTH2 receptor [1] worked out at 16 nM; on hCRTH2 receptor [2], 5.1 nM.

As to `CN(c1ncc(Cl)cn1)C1CCc2c(c3cc(OC(F)(F)F)ccc3n2CC(=O)O)C1` (stereo not shown) [Example 56, 2-(3-((5-chloropyrimidin-2-yl)(methyl)amino)-6-(trifluoromethoxy)-3,4-dihydro-1H-carbazol-9(2H)-yl)acetic acid], the IC50 on hCRTH2 receptor [1] stood at 303 nM; at hCRTH2 receptor [2], 8.8 nM.

As for `COc1ccc2c(c1)c1c(n2CC(=O)O)CCC(N(C)c2ncc(Cl)cn2)C1` (stereo not shown) [Example 57, 2-(3-((5-chloropyrimidin-2-yl)(methyl)amino)-6-methoxy-3,4-dihydro-1H-carbazol-9(2H)-yl)acetic acid], the figures for the IC50 at hCRTH2 receptor [1] and at hCRTH2 receptor [2] were 56 nM and 4.6 nM, respectively.

`CN(c1ccc(Cl)cn1)[C@H]1CCc2c(c3cc(F)ccc3n2CC(=O)O)C1` [Example 37, (3S)-2-(3-((5-chloropyridin-2-yl)(methyl)amino)-6-fluoro-3,4-dihydro-1H-carbazol-9(2H)-yl)acetic acid]: the values for the concentration for half-maximal inhibition (IC50) on hCRTH2 receptor [1] and on hCRTH2 receptor [2] were 13 nM and 5.2 nM, respectively.

Turning to `CN(c1ccc(C(F)(F)F)cn1)[C@H]1CCc2c(c3cc(F)ccc3n2CC(=O)O)C1` [Example 35, (3S)-2-(6-fluoro-3-(methyl(5-(trifluoromethyl)pyridin-2-yl)amino)-3,4-dihydro-1H-carbazol-9(2H)-yl)acetic acid], the IC50 at hCRTH2 receptor [1] stood at 20 nM; on hCRTH2 receptor [2], 9.1 nM.
